Data from patent US11014934B2, “Antiseptic drug” (AO “TATKHIMFARMPREPARATY”, priority 2017, dated 2021).

Experiments:
Format in all cases: cell-based
Rh. Oryzae = assay: Sensitivity of microscopic fungi in solution (colonies after exposure); conditions: exposure 1 min, 0.1% solution
Description: For the preparation of inoculum, were respectively used pure (2-5) days cultures of yeast and mycelial fungi, grown on Saburo's dense nutrient broth. Inoculum for plating was prepared in different ways, depending on the type of fungi. Thus, yeast crops (C. albicans) were prepared by washing the culture from an agar stroke. Cultures of mycelial fungi (Rh. oryzae, Asp. fumigatus) were pre-degraded in a pounder. A suspension of microorganisms was prepared in a sterile isotonic sodium chloride solution, bringing the inoculum density to 5 UNITS (GISK [State Research Institute of Standardization and Control] named after L. A. Tarasevich) or according to the McFarland standard 1 UNIT with a concentration of at least 1×10^6 CFU/ml, considering that the size of the fungal elements is approximately 10 times the size of bacteria (this provided the possibility of creating a mixture of biocide with suspension, the concentration of microorganisms of the order of 1×10^5 CFU/ml).
Solutions of compound I, miramistin, and benzalkonium chloride in working concentrations (0.1%, 0.2%, 0.3%) were poured into sterile 0.9 ml tubes. 0.1 ml of microbial suspension was added to test tubes with disinfectant solutions and mixed by shaking for several seconds. The exposition lasted for 1, 5, and 15 minutes. After required temporary exposure for action of the disinfectant, 0.5 ml of the neutralizer solution was added and mixed by shaking.
Then, 0.1 ml of the mixture was inoculated on a dense nutrient medium and the plates with inoculate were placed in a thermostat with a temperature of 27° C. for (2-4) days for yeast and (5-7) days for mycelial fungi, respectively.
After the time required for the cultivation of microorganisms of this species, the results were counted according to the number of colonies grown on the Petri dish. In the absence of growth, the time for culturing microorganisms was increased by a factor of 2. The grown colonies were subjected to microscopy.
The tested substances were studied on clinical and archival strains of yeast and mycelial fungi. As comparison drugs, drugs commonly used in clinical practice were used: miramistin and benzalconium chloride. After the required exposure time for action of the disinfectant, a series of 0.1 ml mixture was aseptically plated on the surface of a dense nutrient medium in Petri dishes. After the time of cultivation of microorganisms, the results were counted according to the number of colonies grown on the Petri dish.

[1] = system: P.aeruginosa in the biofilm; assay: Antibacterial activity against cells immersed in a biofilm matrix (CFU, drop plate); conditions: 24 hours
Description: To determine the effectiveness of the antibiotic against bacteria in […], bacteria were grown in Basal medium for 3 days at a temperature of 37° C. without swinging to obtain a dense biofilm [A. R Kayumov, Khakimullina E., Sharafutdinov I, Trizna E., Latypova L., Lien Thi, Margulis A., Bogachev M, Kurbangalieva A. Inhibition of biofilm formation in Bacillus subtilis by new halogenated furanoses. J. Antibiotics.—2014.—V. 68.—No 5.—P. 297-301.]. Then the biofilm was washed with a sterile 0.9% NaCl solution and fresh sterile medium was poured. Antiseptics were added to concentrations (1-16)×MBC (minimum bactericidal concentration) and incubated for 24 hours. Then the culture fluid was removed from the wells, washed once with 0.9% NaCl solution to remove non-adherent cells, and cell viability in biofilms was evaluated by counting CFU by Drop plate analysis [B. Herigstad, M Hamilton, J. Heersink How to optimize the drop plate method for enumerating bacteria. J Microbiol Methods.—2001.—V. 44.—P. 121-129]. To do this, the biofilm was mechanically removed from the surface and homogenized in 0.9% NaCl by pipetting and ultrasonic treatment. Then, serial 10-fold dilutions of the bacterial suspension in 0.9% NaCl were prepared, and 5 μI of each suspension were transferred to plates with dense nutrient medium. CFU was counted from drops containing 5-10 colonies.
The results of the study of antimicrobial activity against cells of the studied strains immersed in the biofilm matrix, in comparison with miramistin and benzalkonium chloride, are presented in FIGS. 1 and 2.

[2] = system: Escherichia coli CDC F-50; assay: Disinfectant activity in contaminated metal surface test; conditions: for time after application to effective inhibition of bacterial growth: Escherichia coli CDC F-50, 0.1% solutions
Description: (§1) The preparation of the bacterial suspension was carried out similarly to the procedure for determining the disinfecting activity of compound I in suspension (see example 7). To simulate protein contamination of the metal surface, a BSA solution was added to the bacterial suspension to a final concentration of 0.4%. The surface of the metal table was drawn into squares, the number of which depended on the number of strains studied. The test surface should be clean, intact, sterile. To do this, the table was cleaned with alcohol, and then with sterile water. A microbial suspension in a volume of 0.125 ml was applied to a surface area of 5×5 cm and distributed with a sterile spatula over the entire square area. After the microbial suspension was dried, a 0.5 ml solution of compound I (miramistin and benzalkonium chloride being a control) was uniformly applied to the surface at a working concentration of 0.1 and 0.2% and distributed over the square surface with a sterile spatula, and then kept for 1, 5, and 15 minutes.
(§2) After the end of exposure, the contaminated surface was thoroughly wiped with a sterile gauze cloth (size 5×5 cm) soaked in 1 ml of a neutralizer solution and the cloth was immersed in 10 ml of sterile physiological saline in a flask, which was shaken for 10 minutes.
(§3) Plating was carried out as in example 7, in addition to the controls were carried out: • control of the sterility of the surface (before applying the microbial suspension, a metal table was washed off with a sterile swab, followed by plating on a nutrient medium); • control of the vitality of the microorganism (after applying microbial suspension on the metal table, it was washed off with a sterile swab with subsequent plating on the nutrient medium).
(§4) The contamination density of 1 cm^2 of the surface and the percentage of disinfection were calculated, taking the number of colonies removed from control surfaces as 100%. The criterion for the effectiveness of surface disinfection is not less than 99.99% of the death of test microorganisms, the disinfection time is not more than 120 minutes.

[3] = system: Staphylococcus aureus ATCC 209p; assay: as above; conditions: for Inhibition rate (Mean ± SD) of Staphylococcus aureus ATCC 209p growth: 0.1% solution; for Inhibition rate (M ± SD) Staphylococcus aureus ATCC 209p: 0.2% solution; for time after application to effective inhibition of bacterial growth (99.99%): 0.1% solutions
Description: as §1, §2, §3, §4

[4] = 0.1% solution, exposure 1 min, +BSA
[5] = 0.1% solution, exposure 1 min, −BSA
[6] = 0.1% solution, exposure 5 min, +BSA
[7] = 0.1% solution, exposure 5 min, −BSA
[8] = 0.1% solution, exposure 15 min, +BSA
[9] = 0.1% solution, exposure 15 min, −BSA
[10] = 0.2% solution, exposure 1 min, +BSA
[11] = 0.2% solution, exposure 1 min, −BSA
[12] = 0.2% solution, exposure 5 min, +BSA
[13] = 0.2% solution, exposure 5 min, −BSA
[14] = 0.2% solution, exposure 15 min, +BSA
[15] = 0.2% solution, exposure 15 min, −BSA
[16] = Staphylococcus aureus ATCC 209p

Row | Compound | Number of colonies grown in a Petri dish (Rh. Oryzae) | excess of MBC giving a decrease in the number of CFU by 3 orders of magnitude [1] | Inhibition rate (M ± SD) of Escherichia coli CDC F-50 growth [2, 4] | Inhibition rate (M ± SD) of Escherichia coli CDC F-50 growth [2, 5] | Inhibition rate (M ± SD) of Escherichia coli CDC F-50 growth [2, 6] | Inhibition rate (M ± SD) of Escherichia coli CDC F-50 growth [2, 7] | Inhibition rate (M ± SD) of Escherichia coli CDC F-50 growth [2, 8] | Inhibition rate (M ± SD) of Escherichia coli CDC F-50 growth [2, 9] | Inhibition rate (M ± SD) of Escherichia coli CDC F-50 growth [2, 10] | Inhibition rate (M ± SD) of Escherichia coli CDC F-50 growth [2, 11] | Inhibition rate (M ± SD) of Escherichia coli CDC F-50 growth [2, 12] | Inhibition rate (M ± SD) of Escherichia coli CDC F-50 growth [2, 13] | Inhibition rate (M ± SD) of Escherichia coli CDC F-50 growth [2, 14] | Inhibition rate (M ± SD) of Escherichia coli CDC F-50 growth [2, 15] | time after application to effective inhibition of bacterial growth [2] | Inhibition rate (Mean ± SD) of Staphylococcus aureus ATCC 209p growth ([3]; exposure 1 min, +BSA) | Inhibition rate (Mean ± SD) of Staphylococcus aureus ATCC 209p growth ([3]; exposure 1 min, −BSA) | Inhibition rate (Mean ± SD) of Staphylococcus aureus ATCC 209p growth ([3]; exposure 5 min, +BSA) | Inhibition rate (Mean ± SD) of Staphylococcus aureus ATCC 209p growth ([3]; exposure 5 min, −BSA) | Inhibition rate (Mean ± SD) of Staphylococcus aureus ATCC 209p growth ([3]; exposure 15 min, +BSA) | also measured
1 | CCCCCCCCCCCC[N+](C)(C)Cc1cnc(C[N+](C)(C)CCCCCCCCCCCC)c2c1COC(CC)O2 (stereo not shown) [Compound I, 5,8-(Bis(methylene (N, N-dimethyl-N-dodecylammonium))-2-ethyl-4H-[1,3]dioxino [4,5-c]pyridiniumdichloride] | 1 | 4-8 times | 99.92 ± 0.005% | 99.92 ± 0.005% | 99.96 ± 0.005% | 99.97 ± 0.005% | 99.99 ± 0.005% | 99.99 ± 0.00% | 99.94 ± 0.00% | 99.98 ± 0.005% | 99.99 ± 0.005% | 99.99 ± 0.005% | 100 ± 0.005% | 100% | 15 min | 99.98 ± 0.00% | 99.99% | 99.99% | 99.99% | 99.99% | Inhibition rate (Mean ± SD) of Staphylococcus aureus ATCC 209p growth ([3]; exposure 15 min, −BSA): 99.99%; Inhibition rate (M ± SD) Staphylococcus aureus ATCC 209p ([3]; exposure 1 min, +BSA): 99.99%; Inhibition rate (M ± SD) Staphylococcus aureus ATCC 209p ([3]; exposure 1 min, −BSA): 99.99%; Inhibition rate (M ± SD) Staphylococcus aureus ATCC 209p ([3]; exposure 5 min, +BSA): 99.99%; Inhibition rate (M ± SD) Staphylococcus aureus ATCC 209p ([3]; exposure 5 min, −BSA): 99.99%; Inhibition rate (M ± SD) Staphylococcus aureus ATCC 209p ([3]; exposure 15 min, +BSA): 99.99%; Inhibition rate (M ± SD) Staphylococcus aureus ATCC 209p ([3]; exposure 15 min, −BSA): 99.99%; time after application to effective inhibition of bacterial growth (99.99%) [3, 16]: 5 min; time to effective inhibition of bacterial growth ([3]; Staphylococcus aureus ATCC 209p, concentration 0.2%): 1 min
2 | alkyldimethyl(phenylmethyl) ammonium chloride [Benzalconium chloride] | 1 | 16 times | 99.97 ± 0.005% | 99.96 ± 0.005% | 99.97 ± 0.005% | 99.98 ± 0.005% | 99.99 ± 0.005% | 100 ± 0.00% | 99.97 ± 0.00% | 99.99 ± 0.005% | 99.99 ± 0.005% | 100% | 100 ± 0.00% | 100% | 15 min | 99.99 ± 0.005% | 99.99% | 99.99% | 99.99% | 99.99% | time to effective inhibition of bacterial growth ([2]; Escherichia coli CDC F-50, concentration 0.2%, test without protein load): 1 min; Inhibition rate (Mean ± SD) of Staphylococcus aureus ATCC 209p growth ([3]; exposure 15 min, −BSA): 99.99 ± 0.005%; Inhibition rate (M ± SD) Staphylococcus aureus ATCC 209p ([3]; exposure 1 min, +BSA): 99.99%; Inhibition rate (M ± SD) Staphylococcus aureus ATCC 209p ([3]; exposure 1 min, −BSA): 99.99%; Inhibition rate (M ± SD) Staphylococcus aureus ATCC 209p ([3]; exposure 5 min, +BSA): 99.99%; Inhibition rate (M ± SD) Staphylococcus aureus ATCC 209p ([3]; exposure 5 min, −BSA): 99.99%; Inhibition rate (M ± SD) Staphylococcus aureus ATCC 209p ([3]; exposure 15 min, +BSA): 99.99 ± 0.005%; Inhibition rate (M ± SD) Staphylococcus aureus ATCC 209p ([3]; exposure 15 min, −BSA): 100%; time after application to effective inhibition of bacterial growth (99.99%) [3, 16]: 5 min
